Test results: US20210269483A1, “PEPTIDE COMPOUNDS” (ULTUPHARMA AB, priority 2018, published 2021)
Values after ≈ are worked out from the molar mass of the structure shown. Like-named read-outs stand apart in the source and are kept apart here. Starred links: 1 amine or outer side, 2 acyl side, 3 side chain; linkers in the order of their positions; H or OH if unused. Positions of bridges follow the written chain, without caps; N, C: chain ends. Non-standard residues stand in square brackets, D forms with d. Residues, ends and D or L forms follow the SMILES beside them. X3 = CC(C)CCCCCCC[C@H](CC(=O)[*:1])O[*:2]; X4 = CCCCCCC=CC[C@H](CC(=O)[*:1])O[*:2]; Val(3-OH) = CC(C)(O)[C@H](N)C(=O)O; X1 = C/C=C(/N[*:1])C(=O)[*:2]; Dab = NCC[C@H](N)C(=O)O; Dap = NC[C@H](N)C(=O)O

Key:
A. baumannii = type: cell-based, Acinetobacter baumannii
Description: (§1) 2015. M7-A10. Methods for dilution antimicrobial susceptibility tests for bacteria that grow aerobically, 10th ed. Approved standard. CLSI, Wayne, Pa.).
(§2) A) In the broth micro-dilution method, the test media were either AM3 Broth (BD Difco Ltd) mixed with phosphate buffered saline (PBS, Amresco LLC, Solon, USA) in 1:4 ratio (E. colt A. baumannii, Enterobacter cloacae, Klebsiella pneumonia and P. aeruginosa), AM3 Broth mixed with PBS in 1:1 ratio (S. aureus) or Malt Extract (ME; 15 g Malt Extract Dico Ltd. in 1000 mL deionized H2O; Aspergillus fumigatus). Prior to MIC-tests, the bacterial cell concentration/fungal spore concentration was adjusted to between 1 and 5×10^5 cells/spores per mL. […] Afterwards, suspensions of pathogen cells in the appropriate medium were dispensed to the wells of microtiter plates and the growth of pathogens were monitored after 16 to 20 h of incubation at 37° C. in the dark. Positive control comprised respective pathogen cells suspended in untreated sterile appropriate media without addition of compounds(s) and negative control comprised the medium only. The MIC was defined as the lowest concentration of each compound with no visible growth of pathogen. All MIC tests were performed in duplicate and/or triplicate and repeated at least twice.

E. cloacae = type: cell-based, Enterobacter cloacae
Description: as §1, §2

E. coli = type: cell-based, Escherichia coli
Description: as §1, §2

K. pneumoniae = type: cell-based, Klebsiella pneumonia
Description: as §1, §2

P. aeruginosa = type: cell-based, Pseudomonas aeruginosa
Description: as §1, §2

S. aureus = type: cell-based, Staphylococcus aureus
Description: as §1, §2

HepG2 = tested on: HepG2
Protocol: IC50, haemolysis rate and frequency of resistance (FoR, Table 4) was determined using standard protocols by different CROs.

[1] = method A, only lower limit of concentration range shown ("16" means "16-32")

Compound: C/C=C1/NC(=O)[C@H](CCN)NC(=O)[C@H](CC(C)C)NC(=O)[C@H](CN)NC(=O)C[C@@H](CC=CCCCCCC)OC(=O)[C@H](CC(=O)O)NC(=O)[C@H](C(C)(C)O)NC(=O)[C@@H](Cc2ccccc2)NC(=O)[C@H](CN)NC(=O)[C@H]([C@@H](C)O)NC1=O [U756, cyclo-((R)-3-hydroxydodec-5-enoyl-L-DAPA-L-Leu-L-DABA-ABA-L-Thr-L-DAPA-D-Phe-L-OHVal-L-Asp)] ([Dap]L[Dab][X1]T[Dap][dF][Val(3-OH)]D; linker N-C via X4)
- MIC A. baumannii LMG1041T (A. baumannii): 1 mg/L (≈ 0.875 µM)
- MIC E. cloacae LMG2783T (E. cloacae): 2 mg/L (≈ 1.75 µM)
- MIC E. coli LMG15862 (E. coli): 1 mg/L (≈ 0.875 µM)
- MIC K. pneumonia LMG20218 (K. pneumoniae): 2 mg/L (≈ 1.75 µM)
- MIC P. aeruginosa LMG6395 (P. aeruginosa): 4 mg/L (≈ 3.5 µM)
- MIC S. aureus LMG15975 (S. aureus): 4 mg/L (≈ 3.5 µM)

Compound: C/C=C1/NC(=O)[C@H](CCN)NC(=O)[C@H](CC(C)C)NC(=O)[C@H](CN)NC(=O)C[C@@H](CCCCCCCC(C)C)OC(=O)[C@H](CC(=O)O)NC(=O)[C@H](C(C)(C)O)NC(=O)[C@@H](Cc2ccccc2)NC(=O)[C@H](CN)NC(=O)[C@H]([C@@H](C)O)NC1=O [U773, cyclo-((R)-3-hydroxy-11-methyldodecanoyl-L-DAPA-L-Leu-L-DABA-ABA-L-Thr-L-DAPA-D-Phe-L-OHVal-L-Asp)] ([Dap]L[Dab][X1]T[Dap][dF][Val(3-OH)]D; linker N-C via X3)
- MIC A. baumannii LMG1041T (A. baumannii): 4 mg/L (≈ 3.45 µM)
- MIC E. cloacae LMG2783T (E. cloacae): 8 mg/L (≈ 6.9 µM)
- MIC E. coli LMG15862 (E. coli): 2 mg/L (≈ 1.73 µM)
- MIC K. pneumonia LMG20218 (K. pneumoniae): 16 mg/L (≈ 13.8 µM)
- MIC P. aeruginosa LMG6395 (P. aeruginosa): 8 mg/L (≈ 6.9 µM)
- MIC S. aureus LMG15975 (S. aureus): 16 mg/L (≈ 13.8 µM)
- IC50 (HepG2) (HepG2): 8 mg/L (≈ 6.9 µM)

Compound: C/C=C1/NC(=O)[C@H](CCN)NC(=O)[C@H](CC(C)C)NC(=O)[C@H](CN)NC(=O)C[C@@H](CCCCCCCC(C)C)OC(=O)[C@H](CC(=O)O)NC(=O)[C@H](C(C)C)NC(=O)[C@@H](Cc2ccccc2)NC(=O)[C@H](CN)NC(=O)[C@H]([C@@H](C)O)NC1=O [U793, cyclo-((R)-3-hydroxy-11-methyldodecanoyl-L-DAPA-L-Leu-L-DABA-ABA-L-Thr-L-DAPA-D-Phe-L-Val-L-Asp)] ([Dap]L[Dab][X1]T[Dap][dF]VD; linker N-C via X3)
- MIC A. baumannii LMG1041T (A. baumannii): 4 mg/L (≈ 3.5 µM)
- MIC E. cloacae LMG2783T (E. cloacae): 16 mg/L (≈ 14 µM)
- MIC E. coli LMG15862 (E. coli): 4 mg/L (≈ 3.5 µM)
- MIC K. pneumonia LMG20218 (K. pneumoniae): >32 mg/L
- MIC P. aeruginosa LMG6395 (P. aeruginosa): 8 mg/L (≈ 7 µM)
- MIC S. aureus LMG15975 (S. aureus): >32 mg/L
- IC50 (HepG2) (HepG2): 9 mg/L (≈ 7.87 µM)

Compound: C/C=C1/NC(=O)[C@H](CCN)NC(=O)[C@H](CC(C)C)NC(=O)[C@H](CC(N)=O)NC(=O)C[C@@H](CCCCCCCC(C)C)OC(=O)[C@H](CC(=O)O)NC(=O)[C@H](C(C)C)NC(=O)[C@@H](Cc2ccccc2)NC(=O)[C@H](CN)NC(=O)[C@H]([C@@H](C)O)NC1=O [U824, cyclo-((R)-3-hydroxy-11-methyldodecanoyl-L-Asn-L-Leu-L-DABA-ABA-L-Thr-L-DAPA-D-Phe-L-Val-L-Asp)] (NL[Dab][X1]T[Dap][dF]VD; linker N-C via X3)
- MIC A. baumannii LMG1041T (A. baumannii): 16 mg/L (≈ 13.7 µM)
- MIC E. cloacae LMG2783T (E. cloacae): >32 mg/L
- MIC E. coli LMG15862 (E. coli): 16 mg/L (≈ 13.7 µM)
- MIC K. pneumonia LMG20218 (K. pneumoniae): >32 mg/L
- MIC P. aeruginosa LMG6395 (P. aeruginosa): >32 mg/L
- MIC S. aureus LMG15975 (S. aureus): >32 mg/L
- IC50 (HepG2) (HepG2): 35 mg/L (≈ 29.9 µM)

Compound: Table 2 cyclic lipodepsipeptide: R C7H15; DAPA-Leu-DABA-ABA-Thr-DAPA-Phe-OHVal-Asp [U744]
- MIC A. baumannii LMG1041T (A. baumannii; [1]): 16 mg/L
- MIC E. cloacae LMG2783T (E. cloacae; [1]): 16 mg/L
- MIC E. coli LMG15862 (E. coli; [1]): 16 mg/L
- MIC K. pneumonia LMG20218 (K. pneumoniae; [1]): 8 mg/L
- MIC P. aeruginosa LMG6395 (P. aeruginosa; [1]): 16 mg/L
- MIC S. aureus LMG15975 (S. aureus; [1]): >32 mg/L
- IC50 (HepG2) (HepG2; HepG2, determined by a CRO): 72 mg/L

Compound: Table 2 cyclic lipodepsipeptide: R C8H17; DAPA-Leu-DABA-ABA-Thr-DAPA-Phe-OHVal-Asp [U751]
- MIC A. baumannii LMG1041T (A. baumannii; [1]): 4 mg/L
- MIC E. cloacae LMG2783T (E. cloacae; [1]): 4 mg/L
- MIC E. coli LMG15862 (E. coli; [1]): 2 mg/L
- MIC K. pneumonia LMG20218 (K. pneumoniae; [1]): 4 mg/L
- MIC P. aeruginosa LMG6395 (P. aeruginosa; [1]): 8 mg/L
- MIC S. aureus LMG15975 (S. aureus; [1]): 16 mg/L
- IC50 (HepG2) (HepG2; HepG2, determined by a CRO): 29 mg/L

Compound: Table 2 cyclic lipodepsipeptide: R C8H17; DAPA-Leu-DABA-ABA-Thr-DAPA-Phe-OHVal-Asp [U754]
- MIC A. baumannii LMG1041T (A. baumannii; [1]): 2 mg/L
- MIC E. cloacae LMG2783T (E. cloacae; [1]): 4 mg/L
- MIC E. coli LMG15862 (E. coli; [1]): 4 mg/L
- MIC K. pneumonia LMG20218 (K. pneumoniae; [1]): 4 mg/L
- MIC P. aeruginosa LMG6395 (P. aeruginosa; [1]): 8 mg/L
- MIC S. aureus LMG15975 (S. aureus; [1]): 8 mg/L
- IC50 (HepG2) (HepG2; HepG2, determined by a CRO): 20 mg/L

Compound: Table 2 cyclic lipodepsipeptide: R C8H17; DAPA-Leu-DABA-ABA-Thr-DAPA-Phe-OHVal-Asp [U755a]
- MIC A. baumannii LMG1041T (A. baumannii; [1]): 8 mg/L
- MIC E. cloacae LMG2783T (E. cloacae; [1]): 8 mg/L
- MIC E. coli LMG15862 (E. coli; [1]): 8 mg/L
- MIC K. pneumonia LMG20218 (K. pneumoniae; [1]): 8 mg/L
- MIC P. aeruginosa LMG6395 (P. aeruginosa; [1]): 8 mg/L
- MIC S. aureus LMG15975 (S. aureus; [1]): 16 mg/L
- IC50 (HepG2) (HepG2; HepG2, determined by a CRO): 39 mg/L
